Experimental data: article PMC6025150, “Synthesis, enzyme inhibitory kinetics mechanism and computational study of N-(4-methoxyphenethyl)-N-(substituted)-4-methylbenzenesulfonamides as novel therapeutic agents for Alzheimer’s disease” (PeerJ, 2018)
≈ marks a conversion by molar mass, not a printed value. Where “and” joins values, the source holds several entries; their conditions need not be identical. Identical values can stand only once. Like-named read-outs stand apart in the source and are kept apart here.

Target: T1, acetylcholinesterase (from human erythrocytes) (Homo sapiens, UniProt P22303)
T1 construct: acetylcholinesterase (from human erythrocytes, purchased from Sigma-Aldrich, Seoul, Korea); purchased Sigma-Aldrich, Seoul, Korea; host or cells: human erythrocytes (natural source)
Assay: biochemical
Design: LogIC50 (best-fit value): unit not given here
Settings: for inhibition (Mean): mean of three; for % inhibition / LogIC50 (best-fit value) / IC50 (best-fit value): IC50 Raw Data sheet; for IC50, single experiment: each of three independent experiments; for LogIC50 (best-fit value) / IC50 (best-fit value): log(inhibitor) vs. response fit, single run; for IC50 (best-fit value): unit not given; for IC50 (Mean): mean of three experiments
Experimental: The inhibitory activities of synthesized compounds were determined spectrophotometrically using acetylthiocholine iodide as substrate by following the method of ([Ellman et al., 1961]). Briefly, The assay solution consisted of 180 µL of 50 mM Tris-HCl buffer, pH 7.7, containing (0.1 M sodium chloride and 0.02 M magnesium chloride) and 20 µL of enzyme (AChE, EC 3.1.1.7), acetylcholinesterase (from human erythrocytes, purchased from Sigma-Aldrich, Seoul, Korea) solution (50 U per well); increasing concentrations of test compounds (10 µL) were added to the assay solution and pre incubated for 30 min at 4 °C. After that 5,5′ Dithiobis (2 nitrobenzoic acid) (0.3 mM, 20 µL) and acetylthiocholine iodide (1.8 mM, 20 µL) were added to the reaction mixture and incubated at 37 °C for 10 min, followed by the measurement of absorbance at 412 nm. For non-enzymatic reaction, the assays were carried out with a blank containing all components except acetylcholinesterase. The assay measurements were measured at 412 nm using a micro plate reader (OPTI Max Tunable; Molecular Devices, Sunnyvale, CA, USA) having a wave-length range from 340–850 nm; for 96 well plates. The reaction rates were compared and percent inhibition was calculated due to the presence of tested inhibitors. […] Each concentration was analyzed in three independent experiments run in triplicate. The IC50 values were calculated by nonlinear regression using GraphPad Prism 5.0.
The % of Inhibition of Acetylcholinesterase was calculated as following: Inhibition%=B−S∕B×100. Here, the B and S are the absorbance’s for the blank and samples.

[1] = Conc: 0.0306373 (unit not given), Raw Data of IC50 sheet
[2] = Conc: 0.0612745 (unit not given), Raw Data of IC50 sheet
[3] = Conc: 0.122549 (unit not given), Raw Data of IC50 sheet
[4] = Conc: 0.245098 (unit not given), Raw Data of IC50 sheet
[5] = Conc: 0.490196 (unit not given), Raw Data of IC50 sheet
[6] = Conc: 0.980392 (unit not given), Raw Data of IC50 sheet
[7] = Conc: 1.96078 (unit not given), Raw Data of IC50 sheet
[8] = Conc: 3.92157 (unit not given), Raw Data of IC50 sheet
[9] = Concentration 0.0306373 (unit not given)
[10] = Concentration 0.0612745 (unit not given)
[11] = Concentration 0.122549 (unit not given)
[12] = Concentration 0.245098 (unit not given)
[13] = Concentration 0.490196 (unit not given)
[14] = Concentration 0.980392 (unit not given)
[15] = Concentration 1.96078 (unit not given)
[16] = Concentration 3.92157 (unit not given)
[17] = from human erythrocytes, mean ± SEM, read-out: Acetylcholinesterase IC50 ± SEM
[18] = mean converted to uM, Raw Data of IC50 sheet, read-out: IC50

T1 sequence (P22303 32-617 isoform P22303-2 limits assumed): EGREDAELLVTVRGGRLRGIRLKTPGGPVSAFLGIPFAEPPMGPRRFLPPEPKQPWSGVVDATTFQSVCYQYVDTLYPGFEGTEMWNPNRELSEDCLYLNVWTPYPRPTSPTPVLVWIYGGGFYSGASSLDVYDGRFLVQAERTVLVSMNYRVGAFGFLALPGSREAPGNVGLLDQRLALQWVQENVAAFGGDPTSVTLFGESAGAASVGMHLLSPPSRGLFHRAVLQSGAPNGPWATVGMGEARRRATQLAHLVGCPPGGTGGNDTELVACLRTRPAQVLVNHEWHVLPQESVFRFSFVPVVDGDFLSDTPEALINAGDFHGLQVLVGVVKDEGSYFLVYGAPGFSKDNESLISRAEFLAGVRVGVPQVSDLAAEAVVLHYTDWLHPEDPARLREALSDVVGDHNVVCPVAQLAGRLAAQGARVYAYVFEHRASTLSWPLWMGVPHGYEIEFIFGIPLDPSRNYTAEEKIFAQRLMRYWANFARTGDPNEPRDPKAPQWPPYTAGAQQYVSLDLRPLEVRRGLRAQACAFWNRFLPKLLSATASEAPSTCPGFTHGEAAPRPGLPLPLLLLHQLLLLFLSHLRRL

COc1ccc(CCN(CCCc2ccccc2)S(=O)(=O)c2ccc(C)cc2)cc1 [Compound 5g, N-(4-Methoxyphenethyl)-4-methyl-N-(3-phenyl-1-propyl) benzensulfonamide]
inhibition, single experiment [1]: 16.111 and 16.8631 | inhibition (Mean) [1]: 16.1834 | inhibition, single experiment [2]: 30.2326 and 29.5369 | inhibition (Mean) [2]: 29.6527 | inhibition, single experiment [3]: 32.9175 and 33.3333 | inhibition (Mean) [3]: 32.8451 | inhibition, single experiment [4]: 43.5555 and 42.1199 | inhibition (Mean) [4]: 42.7571 | inhibition, single experiment [5]: 49.3413 and 49.9987 | inhibition (Mean) [5]: 49.6905 | inhibition, single experiment [6]: 59.3325 and 58.7749 | inhibition (Mean) [6]: 59.2851 | inhibition, single experiment [7]: 66.9964 and 65.1126 | inhibition (Mean) [7]: 66.1998 | inhibition, single experiment [8]: 74.8965 and 74.0186 | inhibition (Mean) [8]: 74.3992 | % inhibition [9]: 15.576% | % inhibition [10]: 32.2845% | % inhibition [11]: 29.1886% | % inhibition [12]: 42.5959% | % inhibition [13]: 49.7315% | % inhibition [14]: 59.7479% | % inhibition [15]: 66.4906% | % inhibition [16]: 74.2824% | IC50, single experiment (Raw Data of IC50 sheet): 0.3267 µg/mL and 0.3464 µg/mL and 0.341 µg/mL | IC50 [17]: 0.798 ± 0.0138 µM | LogIC50 (best-fit value): -0.4313 | IC50 (best-fit value): 0.3704 | IC50 [18]: 0.798 µM | IC50 (Mean) (Raw Data of IC50 sheet): 0.338 µg/mL (≈ 0.798 µM)

COc1ccc(CCN(Cc2ccccc2C)S(=O)(=O)c2ccc(C)cc2)cc1 [Compound 5h, N-(4-Methoxyphenethyl)-4-methyl-N-(2-methylbenzyl) benzensulfonamide]
inhibition, single experiment [1]: 41.4444 and 41.0099 | inhibition (Mean) [1]: 40.984 | inhibition, single experiment [2]: 45.3557 and 45.1011 | inhibition (Mean) [2]: 44.9216 | inhibition, single experiment [3]: 50.9025 and 51.1299 | inhibition (Mean) [3]: 51.0341 | inhibition, single experiment [4]: 63.8777 and 63.001 | inhibition (Mean) [4]: 63.2456 | inhibition, single experiment [5]: 71.1111 and 70.9965 | inhibition (Mean) [5]: 70.8325 | inhibition, single experiment [6]: 78.3125 and 78.8745 | inhibition (Mean) [6]: 78.5659 | inhibition, single experiment [7]: 83.9784 and 86.5532 | inhibition (Mean) [7]: 85.3051 | inhibition, single experiment [8]: 96.8547 and 96.1111 | inhibition (Mean) [8]: 96.3251 | % inhibition [9]: 40.4976% | % inhibition [10]: 44.3081% | % inhibition [11]: 51.0699% | % inhibition [12]: 62.858% | % inhibition [13]: 70.3899% | % inhibition [14]: 78.5107% | % inhibition [15]: 85.3837% | % inhibition [16]: 96.0094% | IC50, single experiment (Raw Data of IC50 sheet): 0.4151 µg/mL and 0.4171 µg/mL | IC50 [17]: 1.011 ± 0.0053 µM | LogIC50 (best-fit value): -0.3874 | IC50 (best-fit value): 0.4098 | IC50 [18]: 1.01 µM | IC50 (Mean) (Raw Data of IC50 sheet): 0.414 µg/mL (≈ 1.01 µM)

COc1ccc(CCN(Cc2cccc(C)c2)S(=O)(=O)c2ccc(C)cc2)cc1 [Compound 5i, N-(4-Methoxyphenethyl)-4-methyl-N-(3-methylbenzyl) benzensulfonamide]
inhibition, single experiment [1]: 38.1497 and 38.771 | inhibition (Mean) [1]: 38.1601 | inhibition, single experiment [2]: 45.4473 and 46.02 | inhibition (Mean) [2]: 45.6873 | inhibition, single experiment [3]: 56.7855 and 56.3378 | inhibition (Mean) [3]: 56.078 | inhibition, single experiment [4]: 70.5479 and 70.7214 | inhibition (Mean) [4]: 71.0257 | inhibition, single experiment [5]: 74.2589 and 75.8888 | inhibition (Mean) [5]: 75.1591 | inhibition, single experiment [6]: 78.1111 and 76.8876 | inhibition (Mean) [6]: 77.3479 | inhibition, single experiment [7]: 87.2875 and 87.9775 | inhibition (Mean) [7]: 87.5273 | inhibition, single experiment [8]: 97.778 and 97.9734 | inhibition (Mean) [8]: 97.9676 | % inhibition [9]: 37.5596% | % inhibition [10]: 45.5947% | % inhibition [11]: 55.1106% | % inhibition [12]: 71.8079% | % inhibition [13]: 75.3297% | % inhibition [14]: 77.0449% | % inhibition [15]: 87.3169% | % inhibition [16]: 98.1514% | IC50, single experiment (Raw Data of IC50 sheet): 0.1949 µg/mL and 0.1984 µg/mL | IC50 [17]: 0.47 ± 0.0109 µM | LogIC50 (best-fit value): -0.7362 | IC50 (best-fit value): 0.1836 | IC50 [18]: 0.47 µM | IC50 (Mean) (Raw Data of IC50 sheet): 0.1923 µg/mL (≈ 0.47 µM)

COc1ccc(CCN(Cc2ccc(C)cc2)S(=O)(=O)c2ccc(C)cc2)cc1 [Compound 5j, N-(4-Methoxyphenethyl)-4-methyl-N-(4-methylbenzyl) benzensulfonamide]
inhibition, single experiment [1]: 17.2222 and 17.1022 | inhibition (Mean) [1]: 17.3151 | inhibition, single experiment [2]: 31.4199 and 30.0777 | inhibition (Mean) [2]: 30.8306 | inhibition, single experiment [3]: 36.8749 and 37.0114 | inhibition (Mean) [3]: 36.7468 | inhibition, single experiment [4]: 48.1258 and 49.804 | inhibition (Mean) [4]: 49.2304 | inhibition, single experiment [5]: 54.7822 and 55.2287 | inhibition (Mean) [5]: 55.0656 | inhibition, single experiment [6]: 59.1009 and 58.8888 | inhibition (Mean) [6]: 59.2947 | inhibition, single experiment [7]: 65.9226 and 65.7652 | inhibition (Mean) [7]: 65.7178 | inhibition, single experiment [8]: 90.0712 and 89.7746 | inhibition (Mean) [8]: 89.7021 | % inhibition [9]: 17.621% | % inhibition [10]: 30.9943% | % inhibition [11]: 36.3541% | % inhibition [12]: 49.7613% | % inhibition [13]: 55.1859% | % inhibition [14]: 59.8945% | % inhibition [15]: 65.4657% | % inhibition [16]: 89.2606% | IC50, single experiment (Raw Data of IC50 sheet): 0.5355 µg/mL and 0.4119 µg/mL | IC50 [17]: 1.11 ± 0.0999 µM | LogIC50 (best-fit value): -0.3835 | IC50 (best-fit value): 0.4136 | IC50 [18]: 1.11 µM | IC50 (Mean) (Raw Data of IC50 sheet): 0.4537 µg/mL (≈ 1.11 µM)
